Test results as given in PMC11766867, “Novel 2-Thiazolylhydrazone with Druggable Properties for Antifungal Application” (Journal of Fungi, 2025).
Values after ≈ are worked out from the molar mass of the structure shown. Read-outs that look alike come from different tables or passages of the source.

Legend:
chorioallantoic membrane = experiment: HET-CAM assay (Hen's Egg Test on the Chorioallantoic Membrane), German protocol; format: in vivo, Gallus gallus domesticus; conditions: RW3 at 100 µM; for Irritation Score: 300 µL on chorioallantoic membrane, 300 s, mean of six eggs; for Classification (irritation potential): HET-CAM, German protocol
Experimental: Gallus gallus domesticus eggs (n = 3) at the eighth day of embryonic development were incubated at 37 ± 2 °C and 50% humidity until the test. On the tenth day, the solutions of RW3 (100 µM), 1% DMSO in saline (diluent), 0.1 mol/L NaOH (positive control), and saline solution (negative control) were placed on the chorioallantoic membrane. Following the application of 300 µL of each solution, according to the German protocol, the changes in the membrane were recorded for 300 s, indicating the time of onset of each observed phenomenon (hemorrhage, lysis, and coagulation) and using the following formula to calculate the Irritation Score (IS) (Equation (1)). Each experiment was repeated two times.IS = (301 − sH)/300 × 5 + (301 − sL)/300 × […] + (301 − sC)/300 × 9,(1) where H = hemorrhage, L—lysis, C = coagulation, and s = start second.
Additionally, to assess the possibility of irritation caused by RW3, the Hen’s Egg Test on the Chorioallantoic Membrane (HET-CAM) was performed. The HET-CAM assay is an in vivo semiquantitative test to evaluate the anti-inflammatory potential and anti-irritant properties, as well as the ocular toxicity of compounds/formulations. The benefits of this test include its simplicity, rapid execution, ease of use, and relatively low cost.

[1] = system: Candidozyma (Candida) auris COLO 01; experiment: organism not typed; format: cell-based; conditions: 35 °C, 48 h, visual endpoint; for MIC: read-out: Minimal Inhibitory Concentration (MIC) C. auris
Experimental: (§1) Broth microdilution testing was conducted following the guidelines in the CLSI document M27-A3 (2008) with modifications. Briefly, the following yeast were used in the present study: C. albicans SC5314, C. tropicalis ATCC 750, Candidozyma (Candida) auris COLO 01, C. parapsilosis ATCC 22019, Pichia kudravzevii (C. krusei) ATCC 20298, C. gattii ATCC 24065, C. neoformans ATCC 24067, and S. brasiliensis (189). All fungus strains were stored at a temperature of −80 °C. Before conducting the experiments, the strains were cultivated on Sabouraud dextrose agar (HiMedia, Mumbai, India) at 35 °C to ensure their purity and viability. The yeast phase of S. brasiliensis was grown on brain–heart infusion agar (BHI; Difco, Detroit, MI, USA) with two successive passages of 7 days at 35 °C and CO2 5% [11]. The compounds were tested at concentrations of 0.125–250 µg/mL. For comparative antifungal controls, fluconazole (Sigma-Aldrich, St. Louis, MO, USA), itraconazole (Sigma-Aldrich, St. Louis, MO, USA), and caspofungine (Sigma-Aldrich, St. Louis, MO, USA) were included. The plates were incubated at 35 °C for 48 h for yeast and for 7 days for S. brasiliensis at 35 °C and CO2 5%. The tests were performed in triplicate. The endpoints were determined visually by comparison with the endpoints of the drug-free growth-control well. The value of the minimum inhibitory concentration (MIC) was defined as the lowest extract concentration at which the well was optically clear and was expressed in µg/mL.

C. albicans SC5314 = experiment: Broth microdilution MIC (CLSI M27-A3 with modifications); format: cell-based; conditions: Candida albicans, 35 °C, 48 h, visual endpoint, read-out: Minimal Inhibitory Concentration (MIC) C. albicans
Experimental: as §1

C. tropicalis ATCC 750 = experiment: as above; format: cell-based; conditions: Candida tropicalis, ATCC750; 35 °C, 48 h, visual endpoint; read-out: Minimal Inhibitory Concentration (MIC) C. tropicalis
Experimental: as §1

C. gattii ATCC 24065 = experiment: as above; format: cell-based; conditions: Cryptococcus gattii, ATCC24065; 35 °C, 48 h, visual endpoint; read-out: Minimal Inhibitory Concentration (MIC) C. gattii
Experimental: as §1

[2] = system: Pichia kudravzevii (C. krusei) ATCC 20298; experiment: as above; format: cell-based; conditions: ATCC20298, 35 °C, 48 h, visual endpoint, read-out: Minimal Inhibitory Concentration (MIC) P. kudravzevii
Experimental: as §1

C. neoformans ATCC 24067 = experiment: as above; format: cell-based; conditions: Cryptococcus neoformans, ATCC24067; 35 °C, 48 h, visual endpoint; read-out: Minimal Inhibitory Concentration (MIC) C. neoformans
Experimental: as §1

[3] = system: C. parapsilosis ATCC 22019; experiment: as above; format: cell-based; conditions: Lodderomyces parapsilosis, ATCC22019; 35 °C, 48 h, visual endpoint; read-out: Minimal Inhibitory Concentration (MIC) C. parapsilosis
Experimental: as §1

S. brasiliensis (189) = experiment: Broth microdilution MIC (CLSI M27-A3 with modifications), yeast phase; format: cell-based; conditions: Sporothrix brasiliensis, 168 h, 7 days at 35 °C and CO2 5%, read-out: Minimal Inhibitory Concentration (MIC) S. brasiliensis
Experimental: as §1, with “The value of the minimum inhibitory concentration (MIC) was defined as the lowest extract concentration at which the well was optically clear and was expressed in µg/mL.” left out

[4] = Saturation shake-flask solubility method; format: physicochemical; conditions: for solubility at 24 h: aqueous USP buffer, thermodynamic from solid, n = 3, read-out: Average Solubility mg/mL (±SD)
Experimental: The equilibrium solubility of RW3 samples was assessed using the shake-flask method. The samples were dispersed in buffers described in the United States Pharmacopeia at pH values of 2.0, 4.5, and 6.8. For each reported solubility result, three independent shake-flask experiments were carried out in parallel. For each experiment, the solid sample was added carefully using a spatula to 2 mL of the aqueous buffer in a glass vial, while stirring, until a heterogeneous system (solid sample and liquid) was obtained. The solution containing solid excess of the sample was then capped, and stirred at 37 °C, 100 rpm, for 24 h in orbital shaker (Tecnal, Campinas, Brazil). An aliquot of 1 mL of the suspension was centrifuged, and the supernatant was then collected and filtered through a 0.2 µm PVDF filter. The resulting solution was then diluted 200× in the mobile phase, and the concentration of the sample in each aliquot was measured by the HPLC method. The RW3 concentrations were determined by injections of 10 µL of the samples via HPLC, using a Waters Alliance system (New Castle, DE, USA). Chromatographic separations were obtained using a PhenoSphere-NEXT® 5 µm C18 column (150 mm; 4,6 mm; Phenomenex®, Torrance, CA, USA) at 40° C. The mobile phase (1 mL/min) was composed of phosphate buffer 20 mM pH 4.0 and acetonitrile (50:50 v/v). The wavelength was set at 308 nm. The HPLC method employed was evaluated for linearity, precision, accuracy, and selectivity.
The determination of the solubility under physiological conditions, particularly considering the different pH levels throughout the gastrointestinal tract, is one of the most important biopharmaceutical parameters that must be generated during the early stages of developing a new drug for oral administration. In this study, the solubility determination of RW3 was carried out using the miniaturized shake flask test, as only a small amount of the compound under investigation was available. In the literature, there are publications that have successfully employed the miniaturized test.

Caco-2 cells [5] = experiment: In vitro Caco-2 permeability assay; format: in vitro ADME, human; conditions: high permeability: Papp > 10 × 10^−6 cm/s
Experimental: (§2) The Caco-2 cells (from ATCC) were cultured in 12-well Transwell® (Corning Incorporated, New York, NY, USA) insert filters for 21 days at a seeding density of 5 × 10^4 cells/cm^2 to achieve confluence and differentiation. The integrity of the monolayer was examined by measuring the transepithelial electrical resistance (TEER) with an epithelial voltammeter Millicell-ERS (Merck SA—German, Darmstadt, Germany). Only cell monolayers with a TEER above […] were used for the transport assays.
(§3) Transport experiments were conducted by adding 10 µg/mL RW3 in HBSS buffer at pH 6.8 to the apical compartments of the Transwell® plates (Corning, Corning, NY, USA), while the basolateral buffer was maintained at pH 7.4. The plates were agitated in an orbital shaker at 37 °C (100 rpm). Samples (100 µL) were collected from both the basolateral and apical sides at 30, 60, 90, 120, and 180 min. The apparent permeability coefficients (Papp, cm/s) were calculated using the Equation (2):Papp = […](2) where VR is the volume of the receiver compartment (basolateral or apical), DQ/Dt is the linear appearance rate of the compound on the receiver chamber (in ng/cm^3/s), A is the membrane surface area (cm^2), and C0 is the initial concentration in the donor compartment (ng/cm^3). This calculation requires that the sink conditions are fulfilled; therefore, only receiver concentrations below 10% of the donor concentration were employed in the calculations.

[6] = In vitro Caco-2 permeability assay; format: in vitro ADME, human; conditions: human, Caco-2
Experimental: as §2, §3

Caco-2 cells [7] = experiment: In vitro Caco-2 cytotoxicity (MTT, ISO 10993-5); format: cell-based, human; conditions: 10, 25 and 50 µg/mL; non-cytotoxic if viability exceeds 70% (ISO 10993-5)
Experimental: (§4) In vitro cytotoxicity assays were carried out following the protocol outlined in the ISO 10993-5 guideline (ISO, 2022). The human colon carcinoma cell line, Caco-2 cells (from ATCC), were cultured in 96-well plates for 24 h at a seeding density of 2 × 10^4 cells/well. The RW3 compound was dissolved in DMEM without phenol to prepare samples of 10, 25, and 50 µg/mL concentrations. Six replicates of each concentration for RW3 were assessed. This range of concentrations was chosen for reasons associated with the subsequent permeability tests. The experiments began by replacing the culture medium in each well with 100 µL of sample or control solutions, followed by a 4 h incubation at 37 °C in a CO2 incubator. Then, the solutions in each well were aspirated, and the cells were further incubated for 2 h with 30 µL of MTT solution (5 mg/mL, Sigma–Aldrich Corp., St. Louis, MO, USA, in DMEM and PBS buffer, 9:1 v/v). Next, formazan crystals were solubilized with 70 µL of isopropyl alcohol acidified with hydrochloric acid and quantified spectrophotometrically at 570 and 690 nm (Spectra Fluor plate reader, Tecan, Grödig, Austria). Cell viability was calculated based on the measured absorbance relative to the absorbance of the cells exposed to the negative controls (DMEM), which represented 100% cell viability, and for the positive control, we employed DMSO 50% in DMEM, which represented 0% cell viability.

[8] = In vitro Caco-2 cytotoxicity (MTT, ISO 10993-5); format: cell-based, human; conditions: human, Caco-2 cells, 4 h, MTT, read-out: cell viability
Experimental: as §4

Row | MIC [1] [µg/mL] | MIC (C. albicans SC5314) [µg/mL] | MIC (C. tropicalis ATCC 750) [µg/mL] | MIC (C. gattii ATCC 24065) [µg/mL] | MIC [2] [µg/mL] | MIC (C. neoformans ATCC 24067) [µg/mL] | MIC [3] [µg/mL] | MIC (S. brasiliensis (189)) [µg/mL] | SMILES | Irritation Score (chorioallantoic membrane) | Classification (irritation potential) (chorioallantoic membrane) | further results
1 |  |  |  |  |  |  |  |  | [Na+].[OH-] [0.1 M NaOH, NaOH, reference compound] | 12.00 | Severe irritant | 
2 |  |  |  |  |  |  |  |  | CC[C@H](C)C[C@H](C)CCCCCCCCC(=O)N[C@H]1C[C@@H](O)[C@@H](NCCN)NC(=O)[C@@H]2[C@@H](O)CCN2C(=O)[C@H]([C@H](O)CCN)NC(=O)[C@H]([C@H](O)[C@@H](O)c2ccc(O)cc2)NC(=O)[C@@H]2C[C@@H](O)CN2C(=O)[C@H]([C@@H](C)O)NC1=O [Caspofungin, caspofungine] |  |  | Minimal Inhibitory Concentration (MIC) C. auris [1]: 0.05 µg/mL
3 | 64 (≈ 209 µM) | 0.5 (≈ 1.63 µM) | 0.25 (≈ 0.816 µM) | 2 (≈ 6.53 µM) | 32 (≈ 104 µM) | 2 (≈ 6.53 µM) | 1 (≈ 3.27 µM) |  | OC(Cn1cncn1)(Cn1cncn1)c1ccc(F)cc1F [Fluconazole, fluconazole, reference compound] |  |  | 
4 |  |  |  |  |  |  |  | 0.5 (≈ 0.709 µM) | CCC(C)n1ncn(-c2ccc(N3CCN(c4ccc(OCC5COC(Cn6cncn6)(c6ccc(Cl)cc6Cl)O5)cc4)CC3)cc2)c1=O (stereo not drawn) [Itraconazole, itraconazole, reference compound] |  |  | 
5 | 15.6 (≈ 57.5 µM) | 31.3 (≈ 115 µM) | 125 (≈ 461 µM) | 7.8 (≈ 28.8 µM) | 15.6 (≈ 57.5 µM) | 3.9 (≈ 14.4 µM) | 125 (≈ 461 µM) | 15.6 (≈ 57.5 µM) | CCOC(=O)Cc1csc(N/N=C(\C)C(=O)O)n1 [RW3, (E)-2-(2-(4-(2-Ethoxy-2-oxoethyl)thiazol-2-yl)hydrazineylidene)-Propanoic Acid] | 0.76 | Non-irritant | solubility at 24 h ([4]; aqueous buffer, buffer pH 4.5, 37 °C): 1.01 ± 0.01 mg/mL (≈ 3720 µM); solubility at 24 h ([4]; aqueous buffer, buffer pH 6.8, 37 °C): 2.76 ± 0.09 mg/mL (≈ 10200 µM); solubility at 24 h ([4]; simulated gastric fluid, buffer pH 2.0, 37 °C): 0.67 ± 0.001 mg/mL (≈ 2470 µM); maximum daily dose borderline for high solubility classification (BCS, dose/S0 ratio less than 250) ([4]; extrapolated from lowest solubility (pH 2.0)): 168 mg; permeability characterization (BCS) (Caco-2 cells [5]): high permeability compound; Papp A→B at 180 min, 10 µg/mL ([6]; apical−basolateral, 10 µg/mL, apical pH 6.8, basolateral pH 7.4, n = 3): 23.1 ± 9.69 ×10⁻⁶ cm/s; Papp B→A at 180 min, 10 µg/mL ([6]; basolateral−apical, 10 µg/mL, n = 3): 17.7 ± 7.19 ×10⁻⁶ cm/s; efflux ratio at 180 min, 10 µg/mL ([6]; read-out: Ratio Efflux Papp B-A/Papp A-B): 0.76; cytotoxic effects on the Caco-2 cell line (Caco-2 cells [7]): no cytotoxic effects; viability at 4 h, 10 µg/mL ([8]; Caco-2, 10 µg/mL): 100%; viability at 4 h, 25 µg/mL ([8]; Caco-2, 25 µg/mL): 88%; viability at 4 h, 50 µg/mL ([8]; Caco-2, 50 µg/mL): 86%
